From ChEMBL document CHEMBL1201862, “PubChem BioAssay data set” (2004)
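Briefly, cells in 96-well plates were exposed to five compound concentrations for 48 h, and endpoints were estimated by linear interpolation. Abbreviation: GI50, concentration required for 50% inhibition of growth.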 Calls of active or inactive are those of the source. Cut-off read from the data, not from the text of the source: active = GI50 up to about 1.1 µM and inactive = higher.

Experiments:
Assay in all cases: NCI-60 cell line screen, 48 h
RPMI-8226 = tested on: RPMI-8226
PC-3 = tested on: PC-3
IGROV-1 = tested on: IGROV-1
OVCAR-4 = tested on: OVCAR-4
NCI-H226 = tested on: NCI-H226
OVCAR-3 = tested on: OVCAR-3
NCI/ADR-RES = tested on: NCI/ADR-RES
786-0 = tested on: 786-0
MDA-MB-231 = tested on: MDA-MB-231
K562 = tested on: K562
SNB-75 = tested on: SNB-75
HL-60 = tested on: HL-60
SK-MEL-2 = tested on: SK-MEL-2
MOLT-4 = tested on: MOLT-4
MDA-MB-435 = tested on: MDA-MB-435
MDA-N = tested on: MDA-N
NCI-H460 = tested on: NCI-H460
HOP-92 = tested on: HOP-92
HCT-116 = tested on: HCT-116
UACC-257 = tested on: UACC-257
UO-31 = tested on: UO-31
U-251 = tested on: U-251
UACC-62 = tested on: UACC-62
BT-549 = tested on: BT-549
Malme-3M = tested on: Malme-3M
DU-145 = tested on: DU-145
SK-MEL-5 = tested on: SK-MEL-5
SR = tested on: SR
SW-620 = tested on: SW-620
HT-29 = tested on: HT-29
OVCAR-8 = tested on: OVCAR-8
MCF7 = tested on: MCF7
SNB-19 = tested on: SNB-19
Hs-578T = tested on: Hs-578T
COLO 205 = tested on: COLO 205
CCRF-CEM = tested on: CCRF-CEM
NCI-H23 = tested on: NCI-H23
SF-295 = tested on: SF-295
ACHN = tested on: ACHN
SK-OV-3 = tested on: SK-OV-3
SF-539 = tested on: SF-539
RXF 393 = tested on: RXF 393
OVCAR-5 = tested on: OVCAR-5
M14 = tested on: M14
SK-MEL-28 = tested on: SK-MEL-28
T47D = tested on: T47D
EKVX = tested on: EKVX
HCT-15 = tested on: HCT-15
LOX IMVI = tested on: LOX IMVI
SF-268 = tested on: SF-268
A549 = tested on: A549
TK-10 = tested on: TK-10
CAKI-1 = tested on: CAKI-1
HOP-62 = tested on: HOP-62
KM12 = tested on: KM12
HCC 2998 = tested on: HCC 2998
SN12C = tested on: SN12C
NCI-H522 = tested on: NCI-H522
A498 = tested on: A498

## CC(=O)Nc1ccc(CNc2cc(=O)n(C)c(=O)[nH]2)cc1
RPMI-8226
  GI50: > 100 µM (inactive)
PC-3
  GI50: > 100 µM (inactive)
IGROV-1
  GI50: > 100 µM (inactive)
OVCAR-4
  GI50: > 100 µM (inactive)
NCI-H226
  GI50: > 100 µM (inactive)
OVCAR-3
  GI50: > 100 µM (inactive)
NCI/ADR-RES
  GI50: > 100 µM (inactive)
786-0
  GI50: > 100 µM (inactive)
MDA-MB-231
  GI50: > 100 µM (inactive)
K562
  GI50: > 100 µM (inactive)
SNB-75
  GI50: > 100 µM (inactive)
HL-60
  GI50: > 100 µM (inactive)
SK-MEL-2
  GI50: > 100 µM (inactive)
MOLT-4
  GI50: > 100 µM (inactive)
MDA-MB-435
  GI50: > 100 µM (inactive)
MDA-N
  GI50: > 100 µM (inactive)
NCI-H460
  GI50: > 100 µM (inactive)
HOP-92
  GI50: > 100 µM (inactive)
HCT-116
  GI50: > 100 µM (inactive)
UACC-257
  GI50: > 100 µM (inactive)
UO-31
  GI50: > 100 µM (inactive)
U-251
  GI50: > 100 µM (inactive)
UACC-62
  GI50: > 100 µM (inactive)
BT-549
  GI50: > 100 µM (inactive)
Malme-3M
  GI50: > 100 µM (inactive)
DU-145
  GI50: > 100 µM (inactive)
SK-MEL-5
  GI50: > 100 µM (inactive)
SR
  GI50: > 100 µM (inactive)
SW-620
  GI50: > 100 µM (inactive)
HT-29
  GI50: > 100 µM (inactive)
OVCAR-8
  GI50: > 100 µM (inactive)
MCF7
  GI50: > 100 µM (inactive)
SNB-19
  GI50: > 100 µM (inactive)
Hs-578T
  GI50: > 100 µM (inactive)
COLO 205
  GI50: > 100 µM (inactive)
CCRF-CEM
  GI50: > 100 µM (inactive)
NCI-H23
  GI50: > 100 µM (inactive)
SF-295
  GI50: > 100 µM (inactive)
ACHN
  GI50: > 100 µM (inactive)
SK-OV-3
  GI50: > 100 µM (inactive)
SF-539
  GI50: > 100 µM (inactive)
RXF 393
  GI50: > 100 µM (inactive)
OVCAR-5
  GI50: > 100 µM (inactive)
M14
  GI50: > 100 µM (inactive)
SK-MEL-28
  GI50: > 100 µM (inactive)
T47D
  GI50: > 100 µM (inactive)
EKVX
  GI50: > 100 µM (inactive)
HCT-15
  GI50: > 100 µM
LOX IMVI
  GI50: > 100 µM (inactive)
SF-268
  GI50: > 100 µM (inactive)
A549
  GI50: > 100 µM (inactive)
TK-10
  GI50: > 100 µM (inactive)
CAKI-1
  GI50: > 100 µM (inactive)
HOP-62
  GI50: > 100 µM (inactive)
KM12
  GI50: > 100 µM (inactive)
HCC 2998
  GI50: > 100 µM (inactive)
SN12C
  GI50: > 100 µM (inactive)
NCI-H522
  GI50: > 100 µM (inactive)

## CCCC(=O)NC1=C(NCC)C(=O)c2ccccc2C1=O
RPMI-8226
  GI50: > 100 µM (inactive)
PC-3
  GI50: 40.9 µM (inactive)
IGROV-1
  GI50: > 100 µM (inactive)
OVCAR-4
  GI50: > 100 µM (inactive)
NCI-H226
  GI50: > 100 µM (inactive)
OVCAR-3
  GI50: 34.2 µM (inactive)
NCI/ADR-RES
  GI50: > 10 µM (inactive)
786-0
  GI50: > 100 µM (inactive)
MDA-MB-231
  GI50: 83.4 µM (inactive)
K562
  GI50: 50.8 µM (inactive)
SNB-75
  GI50: > 100 µM (inactive)
HL-60
  GI50: 40.5 µM (inactive)
MOLT-4
  GI50: 73.3 µM (inactive)
MDA-MB-435
  GI50: 25.2 µM (inactive)
MDA-N
  GI50: 20.8 µM (inactive)
NCI-H460
  GI50: > 100 µM (inactive)
HOP-92
  GI50: > 100 µM (inactive)
HCT-116
  GI50: 43.7 µM (inactive)
UACC-257
  GI50: 39.4 µM (inactive)
U-251
  GI50: > 100 µM (inactive)
UACC-62
  GI50: > 100 µM (inactive)
BT-549
  GI50: > 100 µM (inactive)
Malme-3M
  GI50: 38.5 µM (inactive)
DU-145
  GI50: > 100 µM (inactive)
SK-MEL-5
  GI50: 74.1 µM (inactive)
SR
  GI50: 60.5 µM (inactive)
SW-620
  GI50: 33.4 µM (inactive)
HT-29
  GI50: 44.1 µM (inactive)
MCF7
  GI50: 63.5 µM (inactive)
SNB-19
  GI50: > 100 µM (inactive)
Hs-578T
  GI50: > 100 µM (inactive)
COLO 205
  GI50: 36.6 µM (inactive)
CCRF-CEM
  GI50: > 100 µM (inactive)
NCI-H23
  GI50: > 100 µM (inactive)
SF-295
  GI50: > 100 µM (inactive)
ACHN
  GI50: > 100 µM (inactive)
SK-OV-3
  GI50: > 100 µM (inactive)
SF-539
  GI50: > 100 µM (inactive)
RXF 393
  GI50: 48.3 µM (inactive)
OVCAR-5
  GI50: > 100 µM (inactive)
M14
  GI50: > 10 µM (inactive)
SK-MEL-28
  GI50: 95.7 µM (inactive)
T47D
  GI50: > 100 µM (inactive)
HCT-15
  GI50: 39.8 µM
SF-268
  GI50: > 100 µM (inactive)
A549
  GI50: > 100 µM (inactive)
TK-10
  GI50: > 100 µM (inactive)
HOP-62
  GI50: > 100 µM (inactive)
KM12
  GI50: 52.4 µM (inactive)
HCC 2998
  GI50: 86.3 µM (inactive)
SN12C
  GI50: > 100 µM (inactive)
NCI-H522
  GI50: 25.9 µM (inactive)

## CCOP(=O)(OCC)C(N)c1ccc(Cl)cc1 (stereo not drawn)
RPMI-8226
  GI50: > 100 µM (inactive)
PC-3
  GI50: > 100 µM (inactive)
IGROV-1
  GI50: > 100 µM (inactive)
OVCAR-4
  GI50: > 100 µM (inactive)
NCI/ADR-RES
  GI50: > 100 µM (inactive)
786-0
  GI50: > 100 µM (inactive)
MDA-MB-231
  GI50: > 100 µM (inactive)
HL-60
  GI50: > 100 µM (inactive)
SK-MEL-2
  GI50: > 100 µM (inactive)
MOLT-4
  GI50: > 100 µM (inactive)
MDA-MB-435
  GI50: > 100 µM (inactive)
MDA-N
  GI50: > 100 µM (inactive)
NCI-H460
  GI50: > 100 µM (inactive)
HOP-92
  GI50: > 100 µM (inactive)
HCT-116
  GI50: > 100 µM (inactive)
UACC-257
  GI50: > 100 µM (inactive)
A498
  GI50: > 100 µM (inactive)
U-251
  GI50: > 100 µM (inactive)
UACC-62
  GI50: > 100 µM (inactive)
BT-549
  GI50: > 100 µM (inactive)
Malme-3M
  GI50: > 100 µM (inactive)
DU-145
  GI50: > 100 µM (inactive)
SK-MEL-5
  GI50: > 100 µM (inactive)
SW-620
  GI50: > 100 µM (inactive)
HT-29
  GI50: > 100 µM (inactive)
OVCAR-8
  GI50: > 100 µM (inactive)
MCF7
  GI50: > 100 µM (inactive)
SNB-19
  GI50: > 100 µM (inactive)
Hs-578T
  GI50: > 100 µM (inactive)
COLO 205
  GI50: > 100 µM (inactive)
CCRF-CEM
  GI50: > 100 µM (inactive)
NCI-H23
  GI50: > 100 µM (inactive)
ACHN
  GI50: > 100 µM (inactive)
SF-539
  GI50: > 100 µM (inactive)
OVCAR-5
  GI50: > 100 µM (inactive)
M14
  GI50: > 100 µM (inactive)
SK-MEL-28
  GI50: > 100 µM (inactive)
T47D
  GI50: > 100 µM (inactive)
EKVX
  GI50: > 100 µM (inactive)
HCT-15
  GI50: > 100 µM
LOX IMVI
  GI50: > 100 µM (inactive)
SF-268
  GI50: > 100 µM (inactive)
A549
  GI50: > 100 µM (inactive)
TK-10
  GI50: > 100 µM (inactive)
CAKI-1
  GI50: > 100 µM (inactive)
KM12
  GI50: > 100 µM (inactive)
SN12C
  GI50: > 100 µM (inactive)
NCI-H522
  GI50: > 100 µM (inactive)
